Measured values taken from US20230381157A1, “RIFABUTIN FOR THE TREATMENT OF ACINETOBACTER BAUMANNII” (University of Southern California, priority 2018, published 2023).
Converted amounts (≈) assume the structure as drawn.

Key:
A. baumannii HUMC1 = test: IC50 dose response, inhibition of bacterial growth (BacTiter-Glo viability); assay type: cell-based, Acinetobacter baumannii; settings: Acinetobacter baumannii, 11-point dose response
E. coli = test: MIC, broth microdilution; assay type: cell-based; settings: Escherichia coli
[1] = test system: A. baumannii AB5075 transposon disruption mutants; test: microbe, parasite or virus in culture; assay type: cell-based, Acinetobacter baumannii

SMILES: CO[C@H]1/C=C/O[C@@]2(C)Oc3c(C)c(O)c4c(c3C2=O)C2=NC3(CCN(CC(C)C)CC3)NC2=C(NC(=O)/C(C)=C\C=C\[C@H](C)[C@H](O)[C@@H](C)[C@@H](O)[C@@H](C)[C@H](OC(C)=O)[C@@H]1C)C4=O [rifabutin]
- IC50 (A. baumannii HUMC1; HUMC1, 24 h, HUMC1, RPMI + 50% Serum): < 0.847 nM
- IC50 (A. baumannii HUMC1; HUMC1, HUMC1, RPMI + 50% Serum): < 0.847 nM
- IC50 (A. baumannii HUMC1; HUMC1, HUMC1, RPMI): 1 nM
- MIC (E. coli; E. coli DH5a, MHII): 6.25 µg/mL (≈ 7.38 µM)
- MIC (E. coli; E. coli JJ1886, MHII): 6.25 µg/mL (≈ 7.38 µM)
- MIC (E. coli; E. coli JJ1886, RPMI): 6.25 µg/mL (≈ 7.38 µM)
- Rifabutin MIC ([1]; AB00188, disrupted gene aroP, RPMI, listed as RBT): 0.05 µg/mL
- Rifabutin MIC ([1]; AB00190, disrupted gene aroP, RPMI, listed as RBT): 0.05 µg/mL
- Rifabutin MIC ([1]; AB00215, disrupted gene tryP, RPMI, listed as RBT): 0.05 µg/mL
- Rifabutin MIC ([1]; AB00216, disrupted gene tryP, RPMI, listed as RBT): 0.05 µg/mL
- Rifabutin MIC ([1]; AB01188, ABUW_0449 (hypothetical protein), MHII): 1.56 µg/mL
- Rifabutin MIC ([1]; AB01188, ABUW_0449 (hypothetical protein), RPMI): 0.05 µg/mL
- Rifabutin MIC ([1]; AB01192, ABUW_0449, MHII): 1.56 µg/mL
- Rifabutin MIC ([1]; AB01192, ABUW_0449, RPMI): 0.05 µg/mL
- Rifabutin MIC ([1]; AB01494, ABUW_0559 (putative phage-related membrane protein), MHII): 3.13 µg/mL
- Rifabutin MIC ([1]; AB01494, ABUW_0559 (putative phage-related membrane protein), RPMI): 0.05 µg/mL
- Rifabutin MIC ([1]; AB01495, ABUW_0559, MHII): 6.25 µg/mL
- Rifabutin MIC ([1]; AB01495, ABUW_0559, RPMI): 0.05 µg/mL
- Rifabutin MIC ([1]; AB02034, ABUW_0745 (hypothetical protein), MHII): 0.78 µg/mL
- Rifabutin MIC ([1]; AB02034, ABUW_0745 (hypothetical protein), RPMI): 0.05 µg/mL
- Rifabutin MIC ([1]; AB02035, ABUW_0745, MHII): 1.56 µg/mL
- Rifabutin MIC ([1]; AB02035, ABUW_0745, RPMI): 0.05 µg/mL
- Rifabutin MIC ([1]; AB02204, disrupted gene aroP, RPMI, listed as RBT): 0.05 µg/mL
- Rifabutin MIC ([1]; AB02205, disrupted gene aroP, RPMI, listed as RBT): 0.05 µg/mL
- Rifabutin MIC ([1]; AB02891, ABUW_1069 (NADH dehydrogenase), MHII): 3.13 µg/mL
- Rifabutin MIC ([1]; AB02891, ABUW_1069 (NADH dehydrogenase), RPMI): 0.05 µg/mL
- Rifabutin MIC ([1]; AB02892, ABUW_1069, MHII): 6.25 µg/mL
- Rifabutin MIC ([1]; AB02892, ABUW_1069, RPMI): 0.05 µg/mL
- Rifabutin MIC ([1]; AB03015, disrupted gene aroP, RPMI, listed as RBT): 0.05 µg/mL
- Rifabutin MIC ([1]; AB03608, disrupted gene hisJ, RPMI, listed as RBT): 0.05 µg/mL
- Rifabutin MIC ([1]; AB03612, disrupted gene hisM, RPMI, listed as RBT): 0.05 µg/mL
- Rifabutin MIC ([1]; AB03616, disrupted gene hisM, RPMI, listed as RBT): 0.05 µg/mL
- Rifabutin MIC ([1]; AB03618, disrupted gene hisM, RPMI, listed as RBT): 0.05 µg/mL
- Rifabutin MIC ([1]; AB04576, ABUW_1741 (outer membrane protein assembly factor BamA), MHII): 1.56 µg/mL
- Rifabutin MIC ([1]; AB04576, ABUW_1741 (outer membrane protein assembly factor BamA), RPMI): 0.05 µg/mL
- Rifabutin MIC ([1]; AB04593, ABUW_1750 (HAD-superfamiy hydrolase), MHII): 3.13 µg/mL
- Rifabutin MIC ([1]; AB04593, ABUW_1750 (HAD-superfamiy hydrolase), RPMI): 0.05 µg/mL
- Rifabutin MIC ([1]; AB04594, ABUW_1750, MHII): 3.13 µg/mL
- Rifabutin MIC ([1]; AB04594, ABUW_1750, RPMI): 0.05 µg/mL
- Rifabutin MIC ([1]; AB04749, ABUW_1817 (putative peroxidase(alpha/beta hydrolase)), MHII): 3.13 µg/mL
- Rifabutin MIC ([1]; AB04749, ABUW_1817 (putative peroxidase(alpha/beta hydrolase)), RPMI): 0.05 µg/mL
- Rifabutin MIC ([1]; AB04750, ABUW_1817, MHII): 3.13 µg/mL
- Rifabutin MIC ([1]; AB04750, ABUW_1817, RPMI): 0.05 µg/mL
- Rifabutin MIC ([1]; AB5075-UW (parent strain), RPMI, listed as RBT): 0.05 µg/mL
- Rifabutin MIC ([1]; AB05089, ABUW_1933 (NADP-dependent fatty aldehyde dehydrogenase), MHII): 1.56 µg/mL
- Rifabutin MIC ([1]; AB05089, ABUW_1933 (NADP-dependent fatty aldehyde dehydrogenase), RPMI): 0.05 µg/mL
- Rifabutin MIC ([1]; AB05348, ABUW_2057 (alcohol dehydrogenase), MHII): 1.56 µg/mL
- Rifabutin MIC ([1]; AB05348, ABUW_2057 (alcohol dehydrogenase), RPMI): 0.05 µg/mL
- Rifabutin MIC ([1]; AB05361, ABUW_2062 (phospholipase D family protein), MHII): 1.56 µg/mL
- Rifabutin MIC ([1]; AB05361, ABUW_2062 (phospholipase D family protein), RPMI): 0.05 µg/mL
- Rifabutin MIC ([1]; AB05362, ABUW_2062, MHII): 1.56 µg/mL
- Rifabutin MIC ([1]; AB05362, ABUW_2062, RPMI): 0.05 µg/mL
- Rifabutin MIC ([1]; AB05479, ABUW_2100 (LysR family transcriptional regulator), MHII): 3.13 µg/mL
- Rifabutin MIC ([1]; AB05479, ABUW_2100 (LysR family transcriptional regulator), RPMI): 0.05 µg/mL
- Rifabutin MIC ([1]; AB05480, ABUW_2100, MHII): 1.56 µg/mL
- Rifabutin MIC ([1]; AB05480, ABUW_2100, RPMI): 0.05 µg/mL
- Rifabutin MIC ([1]; AB05672, ABUW_2165, MHII): 6.25 µg/mL
- Rifabutin MIC ([1]; AB05672, ABUW_2165, RPMI): 3.13 µg/mL
- Rifabutin MIC ([1]; AB05673, ABUW_2165, MHII): 3.13 µg/mL
- Rifabutin MIC ([1]; AB05673, ABUW_2165, RPMI): 3.13 µg/mL
- Rifabutin MIC ([1]; AB05674, ABUW_2165, MHII): 3.13 µg/mL
- Rifabutin MIC ([1]; AB05674, ABUW_2165, RPMI): 1.56 µg/mL
- Rifabutin MIC ([1]; AB05756, ABUW_2194 (acyl-CoA dehydrogenase), MHII): 1.56 µg/mL
- Rifabutin MIC ([1]; AB05756, ABUW_2194 (acyl-CoA dehydrogenase), RPMI): 0.05 µg/mL
- Rifabutin MIC ([1]; AB05757, ABUW_2194, MHII): 6.25 µg/mL
- Rifabutin MIC ([1]; AB05757, ABUW_2194, RPMI): 0.05 µg/mL
- Rifabutin MIC ([1]; AB05837, ABUW_2228 (TonB-dependent receptor), MHII): 3.13 µg/mL
- Rifabutin MIC ([1]; AB05837, ABUW_2228 (TonB-dependent receptor), RPMI): 0.05 µg/mL
- Rifabutin MIC ([1]; AB05838, ABUW_2228, MHII): 3.13 µg/mL
- Rifabutin MIC ([1]; AB05838, ABUW_2228, RPMI): 0.05 µg/mL
- Rifabutin MIC ([1]; AB06047, ABUW_2307 (biotin synthase), MHII): 0.05 µg/mL
- Rifabutin MIC ([1]; AB06047, ABUW_2307 (biotin synthase), RPMI): 0.05 µg/mL
- Rifabutin MIC ([1]; AB06049, ABUW_2307, MHII): 0.05 µg/mL
- Rifabutin MIC ([1]; AB06049, ABUW_2307, RPMI): 0.05 µg/mL
- Rifabutin MIC ([1]; AB06076, ABUW_2318 (cytosine permease), RPMI): 0.05 µg/mL
- Rifabutin MIC ([1]; AB06077, ABUW_2318, MHII): 1.56 µg/mL
- Rifabutin MIC ([1]; AB06077, ABUW_2318, RPMI): 0.05 µg/mL
- Rifabutin MIC ([1]; AB06089, ABUW_2322 (integrase), MHII): 3.13 µg/mL
- Rifabutin MIC ([1]; AB06089, ABUW_2322 (integrase), RPMI): 0.05 µg/mL
- Rifabutin MIC ([1]; AB06091, ABUW_2322, MHII): 6.25 µg/mL
- Rifabutin MIC ([1]; AB06091, ABUW_2322, RPMI): 0.05 µg/mL
- Rifabutin MIC ([1]; AB06105, disrupted gene aroP, RPMI, listed as RBT): 0.05 µg/mL
